Experimental data taken from the supplement of paper PMC10307832.

Assays:
Experiment in all cases: relative viability (nuclei count vs DMSO), 5 days (fraction); higher = more cells survive
HCC-366 = test system: HCC-366
How it was run: (§1)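 Medians of duplicate plates are given as relative viability. That measure is the nuclei count in treated wells divided by the count in vehicle wells. Counts were taken on 4× images of lung cancer cell lines in 1536-well plates, 5 days after pin-tool dosing the day after seeding with one drug alone or a fixed anchor-drug dose plus five library-drug doses (not always all listed) in √10 steps.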

NCI-H1651 = test system: NCI-H1651
How it was run: as §1

NCI-H1650 = test system: NCI-H1650
How it was run: as §1

BEN = test system: BEN
How it was run: as §1

NCI-H1437 = test system: NCI-H1437
How it was run: as §1

NCI-H460 = test system: NCI-H460
How it was run: as §1

LOU-NH91 = test system: LOU-NH91
How it was run: as §1

NCI-H1975 = test system: NCI-H1975
How it was run: as §1

NCI-H1755 = test system: NCI-H1755
How it was run: as §1

CAL-12T = test system: CAL-12T
How it was run: as §1

NCI-H1734 = test system: NCI-H1734
How it was run: as §1

NCI-H2342 = test system: NCI-H2342
How it was run: as §1

NCI-H2023 = test system: NCI-H2023
How it was run: as §1

NCI-H1395 = test system: NCI-H1395
How it was run: as §1

HCC-44 = test system: HCC-44
How it was run: as §1

NCI-H441 = test system: NCI-H441
How it was run: as §1

EKVX = test system: EKVX
How it was run: as §1

NCI-H1355 = test system: NCI-H1355
How it was run: as §1

LU99A = test system: LU99A
How it was run: as §1

NCI-H2085 = test system: NCI-H2085
How it was run: as §1

NCI-H838 = test system: NCI-H838
How it was run: as §1

NCI-H358 = test system: NCI-H358
How it was run: as §1

In the case of CC1(C)CCC(c2ccc(Cl)cc2)=C(CN2CCN(c3ccc(C(=O)NS(=O)(=O)c4ccc(N[C@H](CCN5CCOCC5)CSc5ccccc5)c(S(=O)(=O)C(F)(F)F)c4)cc3)CC2)C1 [Navitoclax] + CC(=O)Nc1cccc(-n2c(=O)n(C3CC3)c(=O)c3c(Nc4ccc(I)cc4F)n(C)c(=O)c(C)c32)c1 [Trametinib] (partner 0.02 µM), the relative viability (HCC-366; first compound 0.005 µM) is reported as 0.319, the relative viability (HCC-366; first compound 0.01581 µM) is reported as 0.419 and the relative viability (HCC-366; first compound 0.1581 µM) is reported as 0.351. For the same compound, the relative viability (HCC-366; first compound 0.5 µM) was 0.288, the relative viability (NCI-H1651; first compound 0.005 µM) was 0.822 and the relative viability (NCI-H1651; first compound 0.01581 µM) was 0.921. The relative viability (NCI-H1651; first compound 0.05 µM) was 0.61, the relative viability (NCI-H1651; first compound 0.1581 µM) was 0.771 and the relative viability (NCI-H1651; first compound 0.5 µM) was 0.864. It also gave a relative viability (NCI-H1650; first compound 0.005 µM) of 0.646, a relative viability (NCI-H1650; first compound 0.01581 µM) of 0.723 and a relative viability (NCI-H1650; first compound 0.05 µM) of 0.489. The relative viability (NCI-H1650; first compound 0.1581 µM) was 0.439, the relative viability (NCI-H1650; first compound 0.5 µM) was 0.45 and the relative viability (BEN; first compound 0.005 µM) was 1.07. It also gave a relative viability (BEN; first compound 0.01581 µM) of 1.18, a relative viability (BEN; first compound 0.05 µM) of 0.94 and a relative viability (BEN; first compound 0.1581 µM) of 1.05. For the same compound, the relative viability (BEN; first compound 0.5 µM) was 0.669, the relative viability (NCI-H1437; first compound 0.005 µM) was 0.476 and the relative viability (NCI-H1437; first compound 0.01581 µM) was 0.595. For the same compound, the relative viability (NCI-H1437; first compound 0.05 µM) was 0.359, the relative viability (NCI-H1437; first compound 0.1581 µM) was 0.472 and the relative viability (NCI-H1437; first compound 0.5 µM) was 0.539. It also gave a relative viability (NCI-H460; first compound 0.005 µM) of 0.135, a relative viability (NCI-H460; first compound 0.01581 µM) of 0.237 and a relative viability (NCI-H460; first compound 0.05 µM) of 0.153. It also gave a relative viability (NCI-H460; first compound 0.1581 µM) of 0.188, a relative viability (NCI-H460; first compound 0.5 µM) of 0.215 and a relative viability (LOU-NH91; first compound 0.005 µM) of 0.776. The relative viability (LOU-NH91; first compound 0.01581 µM) was 0.829, the relative viability (LOU-NH91; first compound 0.05 µM) was 0.607 and the relative viability (LOU-NH91; first compound 0.1581 µM) was 0.685. For the same compound, the relative viability (LOU-NH91; first compound 0.5 µM) was 0.33, the relative viability (NCI-H1975; first compound 0.005 µM) was 0.427 and the relative viability (NCI-H1975; first compound 0.01581 µM) was 0.409. The relative viability (NCI-H1975; first compound 0.05 µM) was 0.236, the relative viability (NCI-H1975; first compound 0.1581 µM) was 0.399 and the relative viability (NCI-H1975; first compound 0.5 µM) was 0.316. It also gave a relative viability (NCI-H1755; first compound 0.005 µM) of 0.743, a relative viability (NCI-H1755; first compound 0.01581 µM) of 0.774 and a relative viability (NCI-H1755; first compound 0.05 µM) of 0.662. The relative viability (NCI-H1755; first compound 0.1581 µM) was 0.764, the relative viability (NCI-H1755; first compound 0.5 µM) was 0.802 and the relative viability (CAL-12T; first compound 0.005 µM) was 0.348. The relative viability (CAL-12T; first compound 0.01581 µM) was 0.373, the relative viability (CAL-12T; first compound 0.05 µM) was 0.351 and the relative viability (CAL-12T; first compound 0.1581 µM) was 0.331. It also gave a relative viability (CAL-12T; first compound 0.5 µM) of 0.311, a relative viability (NCI-H1734; first compound 0.005 µM) of 0.644 and a relative viability (NCI-H1734; first compound 0.01581 µM) of 0.776. It also gave a relative viability (NCI-H1734; first compound 0.1581 µM) of 0.625, a relative viability (NCI-H1734; first compound 0.5 µM) of 0.646 and a relative viability (NCI-H2342; first compound 0.005 µM) of 0.8. The relative viability (NCI-H2342; first compound 0.01581 µM) was 0.957, the relative viability (NCI-H2342; first compound 0.05 µM) was 0.819 and the relative viability (NCI-H2342; first compound 0.1581 µM) was 0.653. For the same compound, the relative viability (NCI-H2342; first compound 0.5 µM) was 0.967, the relative viability (NCI-H2023; first compound 0.005 µM) was 0.556 and the relative viability (NCI-H2023; first compound 0.01581 µM) was 0.724. The relative viability (NCI-H2023; first compound 0.05 µM) was 0.554, the relative viability (NCI-H2023; first compound 0.1581 µM) was 0.5 and the relative viability (NCI-H2023; first compound 0.5 µM) was 0.547. The relative viability (NCI-H1395; first compound 0.005 µM) was 1.03, the relative viability (NCI-H1395; first compound 0.01581 µM) was 1.17 and the relative viability (NCI-H1395; first compound 0.05 µM) was 1.01. It also gave a relative viability (NCI-H1395; first compound 0.1581 µM) of 1.13, a relative viability (NCI-H1395; first compound 0.5 µM) of 1.04 and a relative viability (HCC-44; first compound 0.005 µM) of 1.1. The relative viability (HCC-44; first compound 0.01581 µM) was 1.05, the relative viability (HCC-44; first compound 0.05 µM) was 0.94 and the relative viability (HCC-44; first compound 0.1581 µM) was 1.05. For the same compound, the relative viability (HCC-44; first compound 0.5 µM) was 1.11, the relative viability (NCI-H441; first compound 0.005 µM) was 0.534 and the relative viability (NCI-H441; first compound 0.01581 µM) was 0.616. It also gave a relative viability (NCI-H441; first compound 0.05 µM) of 0.349, a relative viability (NCI-H441; first compound 0.1581 µM) of 0.448 and a relative viability (NCI-H441; first compound 0.5 µM) of 0.553. The relative viability (EKVX; first compound 0.005 µM) was 0.292, the relative viability (EKVX; first compound 0.01581 µM) was 0.457 and the relative viability (EKVX; first compound 0.05 µM) was 0.334. For the same compound, the relative viability (EKVX; first compound 0.1581 µM) was 0.376, the relative viability (EKVX; first compound 0.5 µM) was 0.333 and the relative viability (NCI-H1355; first compound 0.005 µM) was 0.446. For the same compound, the relative viability (NCI-H1355; first compound 0.01581 µM) was 0.468, the relative viability (NCI-H1355; first compound 0.05 µM) was 0.408 and the relative viability (NCI-H1355; first compound 0.1581 µM) was 0.431. For the same compound, the relative viability (NCI-H1355; first compound 0.5 µM) was 0.458, the relative viability (LU99A; first compound 0.005 µM) was 0.527 and the relative viability (LU99A; first compound 0.01581 µM) was 0.597. For the same compound, the relative viability (LU99A; first compound 0.1581 µM) was 0.572, the relative viability (LU99A; first compound 0.5 µM) was 0.674 and the relative viability (NCI-H2085; first compound 0.005 µM) was 0.567. It also gave a relative viability (NCI-H2085; first compound 0.01581 µM) of 0.645, a relative viability (NCI-H2085; first compound 0.05 µM) of 0.402 and a relative viability (NCI-H2085; first compound 0.1581 µM) of 0.621. The relative viability (NCI-H2085; first compound 0.5 µM) was 0.552, the relative viability (NCI-H838; first compound 0.005 µM) was 0.422 and the relative viability (NCI-H838; first compound 0.01581 µM) was 0.639. For the same compound, the relative viability (NCI-H838; first compound 0.05 µM) was 0.51, the relative viability (NCI-H838; first compound 0.1581 µM) was 0.559 and the relative viability (NCI-H838; first compound 0.5 µM) was 0.555. The relative viability (NCI-H358; first compound 0.005 µM) was 0.131, the relative viability (NCI-H358; first compound 0.01581 µM) was 0.148 and the relative viability (NCI-H358; first compound 0.05 µM) was 0.114. For the same compound, the relative viability (NCI-H358; first compound 0.1581 µM) was 0.133 and the relative viability (NCI-H358; first compound 0.5 µM) was 0.146.
